Literature values in US20080160086A1, “Delivery Systems For Calcium” (Scepter Holdings, Inc., priority 2004, published 2008).

Conditions: in humans; U.S. Pat. No. 6,582,722

calcium picolinate [calcium picolinate chelate]
bioavailability: high bioavailability
